Source: patent US20190209697A1, “CELLS LABELLED WITH LIPID CONJUGATES AND METHODS OF USE THEREOF” (priority 2015, published 2019)

Test system: Jurkat cells
Assay: Efficiency of incorporation of AF488-capped glycopolymers into cell membranes, flow cytometry
Format: cell-based
Settings: 10 μM AF488-capped polymer, 1 h at RT
Experimental: Using AF488 labeled polymers, the efficiency with which each glycopolymer was incorporated into cell membranes was measures. Jurkat cells (10^7/mL in serum-free media) were incubated for 1 h at room temperature with 10 μM lipid-conjugated glycopolymer, washed, and then measured for fluorescence by flow cytometry (FIG. 4, panel A).
Jurkat cells were incubated with 10 μM of AF488-capped polymer for 1 h at RT, washed and their fluorescence measured by flow cytometry. […] For FIG. 4-FIG. 5, shown are mean minus background+/−standard deviation of three replicate experiments.
Jurkat cells (10^7/mL) were incubated with AF488-polymers at the given concentration or PBS in serum free media for 1 hr at RT. The cells were then washed, and their fluorescence measured by flow cytometry. Shown are mean and standard deviation of three replicate experiments minus background as measured by cells incubated with PBS instead of polymer.

DMPC
level of incorporation into cell membranes: highest levels of incorporation
